From patent US20260226493A1, “HERBICIDE RESISTANT PLANTS” (SYNGENTA CROP PROTECTION AG, priority 2023, published 2026)
pIC50: −log10 of the molar value.

Columns and labels:
[1] = molecular target: T1, Arabidopsis thaliana BioDA variant enzymes (Arabidopsis thaliana, UniProt B0F481, C388D); assay: biochemical
T1 construct: with the predicted N-terminal mitochondrial transit peptide removed; 6xHis-tag (N); thrombin cleavage site (N); made in house; host or cells: E. coli BL21 (DE3) bioA
Description: (§1) These plasmids were then expressed in E. coli BL21 (DE3) bioA with 50 μg/mL kanamycin and 25 μg/mL chloramphenicol selection. Overnight cultures grown at 37° C. were used to inoculate 8×500 mL AIM in shake flasks at a ratio of 1:100. Cultures were grown at 37° C., 200 rpm for 3.5 hours and then overnight at 20° C. Cells were harvested by centrifugation for 30 minutes at 10 000 g. Cells were stored at −80° C. until extraction. 30 g of cell pellet from was thawed in 120 mL of IMAC buffer A (20 mM HEPES pH7.5, 25 mM imidazole, 500 mM sodium chloride, 0.15 mM pyridoxal phosphate, 0.5 mM TCEP, 1× complete Protease Inhibitor Tablet (Roche)). The resuspension was passed through a cell disrupter at 18 000 PSI and centrifuged at 50 000 g for 25 minutes at 4° C. The His-tagged BIO3-BIO1 protein was purified from the extract supernatant on an AKTA avant chromatography system (Cytiva) using a HisTrap FF column and eluted in IMAC buffer B ((20 mM HEPES pH7.5, 500 mM imidazole, 500 mM sodium chloride, 0.15 mM pyridoxal phosphate, 0.5 mM TCEP) followed by SEC using a HiLoad 26/60 Superdex200 column in SEC buffer (25 mM HEPES pH7.5, 150 mM sodium chloride, 0.15 mM pyridoxal phosphate, 0.5 mM TCEP). Protein concentration was measured and calculated using the absorbance at 280 nm. Extracts were diluted 1 in 4 and 10 uL was analysed by SDS PAGE.
(§2) To measure BIO3-BIO1 mutant enzyme activity in the presence of herbicide, herbicides were incubated with 20 μL of enzyme mix (100 mM EPPS pH 8.6, 0.1 mM pyridoxal phosphate, 0.1 mg/mL BSA, 50 nM BIO3-BIO1 enzyme) for 10 minutes at 20° C. in a well of a 96-well half-area black plate, followed by the addition of 20 μL of substrate mix (final concentration of 100 mM EPPS pH 8.6, 0.1 mM pyridoxal phosphate, 0.1 mg/mL BSA, 100 μM spermidine, 20 μM KAPA, 100 mM NaCO3) and further incubation for 75 minutes at 20° C. The reaction was terminated by the addition of 50 μL of derivatisation mix (final concentration of 250 mM borate NaOH pH 9.4, 3.6 mM o-phthalaldehyde, 7 mM β-mercaptoethanol, 17% (v/v) ethanol, 3.6% (v/v) methanol). The fluorescent product produced by the reaction of DAPA with o-phthalaldehyde and 7 mM β-mercaptoethanol was measured at 470 nm after excitation at 410 nm.
(§3) For IC50 calculations, appropriate dose responses of compounds L, M, B, K and G were used. Calculated percentage inhibitions were then input into GraphPad Prism 7 and IC50s calculated using the non-linear regression (vs. normalised response) equation.

[2] = molecular target: T2, Arabidopsis thaliana BioDA variant enzymes (Arabidopsis thaliana, UniProt B0F481); assay: biochemical
T2 construct: with the predicted N-terminal mitochondrial transit peptide removed; 6xHis-tag (N); thrombin cleavage site (N); made in house; host or cells: E. coli BL21 (DE3) bioA
Description: as §1, §2, §3

T1 sequence (B0F481 24-833 C388D): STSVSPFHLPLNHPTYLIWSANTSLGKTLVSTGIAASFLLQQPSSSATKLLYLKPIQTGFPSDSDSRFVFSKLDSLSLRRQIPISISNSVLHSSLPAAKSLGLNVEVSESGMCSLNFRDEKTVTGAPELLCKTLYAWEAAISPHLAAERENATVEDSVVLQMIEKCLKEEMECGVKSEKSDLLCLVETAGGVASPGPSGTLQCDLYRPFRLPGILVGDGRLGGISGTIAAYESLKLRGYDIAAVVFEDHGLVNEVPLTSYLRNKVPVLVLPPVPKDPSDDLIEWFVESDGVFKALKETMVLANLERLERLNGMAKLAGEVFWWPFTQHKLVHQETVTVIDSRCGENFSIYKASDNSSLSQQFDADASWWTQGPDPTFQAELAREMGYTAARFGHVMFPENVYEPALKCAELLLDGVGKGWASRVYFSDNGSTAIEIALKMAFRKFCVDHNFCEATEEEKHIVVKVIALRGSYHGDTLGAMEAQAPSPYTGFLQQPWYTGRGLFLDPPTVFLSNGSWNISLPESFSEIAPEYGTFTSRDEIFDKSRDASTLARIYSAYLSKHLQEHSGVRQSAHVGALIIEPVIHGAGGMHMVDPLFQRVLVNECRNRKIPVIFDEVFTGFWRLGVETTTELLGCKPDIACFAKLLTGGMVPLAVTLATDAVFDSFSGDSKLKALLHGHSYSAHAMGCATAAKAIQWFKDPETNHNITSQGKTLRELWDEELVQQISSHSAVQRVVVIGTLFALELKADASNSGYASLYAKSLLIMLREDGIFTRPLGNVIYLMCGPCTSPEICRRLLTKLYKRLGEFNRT

| Structure (SMILES) | pIC50 [1] | pIC50 [2] |
| --- | --- | --- |
| O=C(O)CC1CCC(=O)N1Cc1cccc(F)c1F (stereo not shown) [Compound G, 2-[1-[(2,3-difluorophenyl)methyl]-5-oxo-pyrrolidin-2-yl]acetic acid] | 3.44 | 4.05 |
| O=C(O)CC1CCC(=O)N1Cc1ccc(F)c(F)c1F (stereo not shown) [Compound K, 2-[5-oxo-1-[(2,3,4-trifluorophenyl)methyl]pyrrolidin-2-yl]acetic acid] | 3.41 | 4.60 |
